Laboratory results reported in patent US9770439B2, “Hepatitis C virus inhibitors” (priority 2013, dated 2017).

Assays:
Format in all cases: cell-based
[1] = system: HCV replicon, genotype 1a L31V variant with leucine 31 changed to valine in the NS5A protein; details: genotype 1a L31V replicon; test compound titrated with compound N47 fixed at 200 nM versus titrated singly
[2] = system: HCV replicon, genotype 1a Y93H variant with tyrosine 93 changed to histidine in the NS5A protein; details: genotype 1a Y93H replicon; test compound titrated with compound N47 fixed at 200 nM versus titrated singly
Protocol: Combinations can be examined for synergistic activity using a variety of putative NS5A-targeting compounds and a variety of test compounds. […] The test compound can be chosen from compounds exemplified below, which were prepared by methods known in the art, or from others disclosed in the literature.
Similarly, BMS-790052 can be tested singly and in combination with a fixed amount of compound N47 in the HCV replicon cell based assay consisting of the genotype 1a Y93H variant with tyrosine 93 changed to histidine in the NS5A protein.

[3] = system: HCV replicon, genotype-1a variant with glutamine 30 changed to glutamate in the NS5A protein
Text: The NS5A synergistic inhibitory effect of test compounds can be determined using various amounts of an NS5A-targeting compound with titration of a second compound of interest. […] In one embodiment, the HCV genotype strain can be genotype 1a containing a change at amino acid 30 of the NS5A protein consisting of glutamine to glutamate. The test compound can be chosen from compounds listed above or from others present in the literature.

SMILES	Fold - Synergistic G-1a (L31V) [1] [Fold]	Fold - Synergistic G-1a (Y93H) [2] [Fold]	Fold-Synergistic 1a (Q30E) [3]
O=C(Cc1ccccc1)N1CCCC1c1nc2cc(-c3ccc4nc([C@@H]5CCCN5C(=O)Cc5ccccc5)[nH]c4c3)ccc2[nH]1 (stereo partly shown)	<10	<10	
CN(C)[C@@H](C(=O)N1CCC[C@H]1C(=O)Nc1cccc(-c2ncc(-c3ccc4nc([C@@H]5CCCN5C(=O)[C@@H](c5ccccc5)N(C)C)[nH]c4c3)o2)c1)c1ccccc1		10	
Cc1nc2cccc(-c3ncc(-c4ccc5nc([C@@H]6CCCN6C(=O)[C@@H](c6ccccc6)N(C)C)[nH]c5c4)o3)c2[nH]1	>10		
COC(=O)N[C@@H](C(=O)N1CCC[C@H]1c1nc2ccc(C3=NCC(c4ccc(N5CCOCC5)cc4)O3)cc2[nH]1)c1ccccc1 (stereo partly shown)	<10	<10	
COC(=O)N[C@@H](C(=O)N1CCCC1c1ncc(-c2ccc(-c3ccc(-c4cnc([C@@H]5CCCN5C(=O)[C@H]5CCCO5)[nH]4)cc3)cc2)[nH]1)c1ccccc1 (stereo partly shown)	<10	<10	
CN(C)[C@@H](C(=O)N1CCC[C@H]1C1=NC(c2ccc(OCc3ccc(-c4c[nH]c([C@@H]5CCCN5C(=O)[C@@H](c5ccccc5)N(C)C)n4)cc3)cc2)CN1)c1ccccc1 (stereo partly shown)	<10	<10	
CN(C)[C@H](C(=O)N1CCCC[C@H]1c1ncc(-c2ccc(-c3ccc(-c4cnc([C@@H]5CCCCN5C(=O)[C@@H](c5ccccc5)N(C)C)[nH]4)cc3)cc2)[nH]1)c1ccccc1	<10	>10	
COC(=O)N[C@H](C(=O)N1CCCC1c1nc2ccc(C#CC#Cc3ccc4nc([C@@H]5CCCN5C(=O)[C@@H](NC(=O)OC)C(C)C)[nH]c4c3)cc2[nH]1)C(C)C (stereo partly shown)	>100	>10	
CC[C@H]1CC[C@@H](c2ncc(-c3ccc(-c4ccc(-c5cnc([C@@H]6CC[C@H](CC)N6C(=O)[C@@H](NC(=O)OC)C(C)C)[nH]5)cc4)cc3)[nH]2)N1C(=O)C(NC(=O)OC)C(C)C (stereo partly shown)	>100	>100	
COC(=O)N[C@H](C(=O)N1[C@@H]2C[C@@H]2C[C@H]1c1ncc(-c2ccc(C#Cc3ccc(-c4cnc([C@@H]5C[C@H]6C[C@H]6N5C(=O)[C@@H](NC(=O)OC)C(C)C)[nH]4)cc3)cc2)[nH]1)C(C)C	<10	>10	
COC(=O)N[C@H](C(=O)N1CC[C@H](C)C1c1ncc(-c2ccc(-c3ccc(-c4cnc([C@@H]5[C@@H](C)CCN5C(=O)[C@@H](NC(=O)OC)C(C)C)[nH]4)cc3)cc2)[nH]1)C(C)C (stereo partly shown)	>100	>100	
COC(=O)N[C@H](C(=O)N1CCCC1c1ncc(C#Cc2ccc3cc(C#Cc4cnc([C@@H]5CCCN5C(=O)[C@@H](NC(=O)OC)C(C)C)[nH]4)ccc3c2)[nH]1)C(C)C (stereo partly shown)	>10	<10	
COC(=O)N[C@H](C(=O)CN1C(c2ncc(-c3ccc(C#Cc4ccc5c(ccc6[nH]c([C@@H]7C[C@H]8C[C@H]8N7C(=O)[C@@H](NC(=O)OC)C(C)C)nc65)c4)cc3)[nH]2)C[C@H]2C[C@H]21)C(C)C (stereo partly shown)	<10	>10	
COC(=O)N[C@H](C(=O)CN1[C@@H]2C[C@@H]2C[C@H]1c1nc2ccc3cc(C#Cc4ccc5c(ccc6nc([C@@H]7C[C@H]8C[C@H]8N7C(=O)[C@@H](NC(=O)OC)C(C)C)[nH]c65)c4)ccc3c2[nH]1)C(C)C	>10	>10	
COC(=O)N[C@H](C(=O)N1CCCC1c1nc2ccc(-c3ccc4cc(-c5ccc6nc([C@@H]7CCCN7C(=O)[C@@H](NC(=O)OC)C(C)C)[nH]c6c5)ccc4n3)cc2[nH]1)C(C)C (stereo partly shown)	>10	>10	
COC(=O)N[C@H](C(=O)N1C2CC2CC[C@H]1c1ncc(-c2ccc(-c3ccc(-c4cnc([C@@H]5CCC6CC6N5C(=O)[C@@H](NC(=O)OC)C(C)C)[nH]4)cc3)cc2)[nH]1)C(C)C (stereo partly shown)	>100	>100	
COC(=O)N[C@H](C(=O)N1[C@@H]2C[C@@H]2C[C@H]1C(=O)Nc1ccc(C23CCC4C5CC6(c7ccc(NC(=O)[C@@H]8C[C@H]9C[C@H]9N8C(=O)[C@@H](NC(=O)OC)C(C)C)cc7)CC4C(C2)C(C6)C5C3)cc1)C(C)C	<10	<10	

SMILES	Fold - Synergistic G-1a (L31V) [1] [Fold]	Fold - Synergistic G-1a (Y93H) [2] [Fold]	Fold-Synergistic 1a (Q30E) [3]
COC(=O)N[C@H](C(=O)N1C(c2ncc(-c3ccc(-c4ccc(-c5cnc([C@@H]6CCC7CC7N6C(=O)[C@@H](NC(=O)OC)C(C)C)[nH]5)cc4)cc3)[nH]2)CCC2CC21)C(C)C (stereo partly shown)	>100	>100	
COC(=O)N[C@H](C(=O)N1[C@H]2C[C@@]2(C)C[C@H]1c1ncc(-c2ccc(-c3ccc(-c4cnc([C@@H]5C[C@@H]6C[C@@H]6N5C(=O)[C@@H](NC(=O)OC)C(C)C)[nH]4)cc3)cc2)[nH]1)C(C)C	>100	>100	
COC(=O)N[C@H](C(=O)N1C[C@@H](C)CC1c1ncc(-c2ccc(-c3ccc4cc(-c5cnc([C@@H]6C[C@H](C)CN6C(=O)[C@@H](NC(=O)OC)C(C)C)[nH]5)ccc4c3)cc2)[nH]1)C(C)C (stereo partly shown)	<10	>10	
COC(=O)N[C@H](C(=O)N1C[C@H](C)C[C@H]1c1ncc(-c2ccc(-c3ccc4cc(-c5cnc([C@@H]6C[C@@H](C)CN6C(=O)[C@@H](NC(=O)OC)C(C)C)[nH]5)ccc4c3)cc2)[nH]1)C(C)C	<10	>10	
COC(=O)N[C@H](C(=O)N1CCCC1c1cn(-c2ccc(-c3ccc(-n4cnc([C@@H]5CCCN5C(=O)[C@@H](NC(=O)OC)C(C)C)c4)cc3)cc2)cn1)C(C)C (stereo partly shown)	>10	>10	
COC(=O)N[C@H](C(=O)N1C(c2ncc(-c3ccc(-c4cc5cc(-c6c[nH]c([C@@H]7C[C@H]8C[C@H]8N7C(=O)[C@@H](NC(=O)OC)C7CCOCC7)n6)ccc5o4)cc3)[nH]2)C[C@H]2C[C@H]21)C1CCOCC1 (stereo partly shown)	<10	<10	
COC(=O)N[C@H](C(=O)N1C2C[C@@H]2C[C@H]1c1ncc(-c2ccc(C#Cc3ccc(-c4cnc([C@@H]5C[C@H]6C[C@H]6N5C(=O)[C@@H](NC(=O)OC)C(C)C)[nH]4)cc3)cc2)[nH]1)C(C)C (stereo partly shown)	<10	>10	
COc1ccccc1C(O)C1(C(=O)N[C@H](c2nc(-c3ccc(-c4ccc(-c5c[nH]c([C@@H](NC(=O)C6(C(O)c7ccccc7OC)CC6)C(C)(C)C)n5)cc4)cc3)c[nH]2)C(C)(C)C)CC1 (single isomer, unassigned) [Compound N-135A]			>100
COc1ccccc1C(O)C1(C(=O)N[C@H](c2nc(-c3ccc(-c4ccc(-c5c[nH]c([C@@H](NC(=O)C6(C(O)c7ccccc7OC)CC6)C(C)(C)C)n5)cc4)cc3)c[nH]2)C(C)(C)C)CC1 (single isomer, unassigned) [Compound N-135B]			>100
COc1ccccc1C(O)C1(C(=O)N[C@H](c2nc(-c3ccc(-c4ccc(-c5c[nH]c([C@@H](NC(=O)C6(C(O)c7ccccc7OC)CC6)C(C)(C)C)n5)cc4)cc3)c[nH]2)C(C)(C)C)CC1 (single isomer, unassigned) [Compound N-135C]			>100
COC(C)(CCO)C(=O)N[C@H](c1nc(-c2ccc(-c3ccc(-c4c[nH]c([C@@H](NC(=O)C(C)(CCO)OC)C(C)(C)C)n4)cc3)cc2)c[nH]1)C(C)(C)C (single isomer, unassigned) [Compound W-258]			>100
COC(C)(CCO)C(=O)N[C@H](c1nc(-c2ccc(-c3ccc(-c4cnc([C@@H](NC(=O)C(C)(CCO)OC)C(C)(C)C)[nH]4)cc3)cc2)c[nH]1)C(C)(C)C (single isomer, unassigned) [Compound W-259]			>100
CC1([C@H](NC(=O)C2CCC(F)(F)CC2)c2cc3ccc(C#Cc4ccc5nc([C@@H](NC(=O)C6CCC(F)(F)CC6)C6(C)CC6)[nH]c5c4)cc3[nH]2)CC1 [Compound B67]			>100
O=C(C(=O)N1C(c2nc(-c3ccc(-c4ccc(-c5c[nH]c(C6C[C@@H]7C[C@@H]7N6C(=O)C(=O)N6CCC(F)(F)CC6)n5)cc4)cc3)c[nH]2)C[C@@H]2C[C@@H]21)N1CCC(F)(F)CC1 (stereo partly shown) [Compound W-243]			>100
CCOC(=O)NC1(C(=O)N[C@H](c2nc(-c3ccc(-c4ccc(-c5c[nH]c([C@@H](NC(=O)C6(NC(=O)OCC)CCCCC6)C(C)(C)C)n5)cc4)cc3)c[nH]2)C(C)(C)C)CCCCC1 [Compound W-250]			>100
CC(C)(C)C(=O)NC(c1ncc(-c2ccc(-c3ccc(-c4cnc([C@@H](NC(=O)C(C)(C)C)C5(C)CCC5)[nH]4)cc3)cc2)[nH]1)C1(C)CCC1 (stereo partly shown) [Compound Y-39]			>100
